Experiment [1] deals with T1, Aurora Kinase 1 (Homo sapiens, UniProt Q96GD4).
T1 construct: endogenous in cells; host or cells: HT29 colon carcinoma cells
Nature of the experiment: capture ELISA measuring Aurora Kinase 1 autophosphorylation in HT29 colon carcinoma cells. The format is cell-based. The note with it: HT29 cells synchronized for 24 hours, compound treatment 2 hours. As for the experimental part:
To determine the ability of compounds to inhibit Aurora Kinase 1 activity in cells, a capture ELISA measuring Aurora Kinase 1 autophosphorylation was developed in HT29 colon carcinoma cells (Yasui Y, et al 2004). Briefly, 15,000 cells/well were seeded in a 96-well collagen coated plates in RPMI+10% FBS and incubated at 37° C. in 5% CO2 overnight. The following day, the cells were treated with 166 nM nacadazole compounds for 24 hours at 37° C. Synchronized cells were further treated with compounds for 2 hours. Compound dilutions were prepared from 0.1 mM DMSO stocks such that 1.1 μL of each dilution was added to obtain a final concentration ranging from 10 μM to 13 nM in one-third log steps. Following compound treatment, plates were centrifuged at 1000 rpm for 2 minutes and washed twice with 100 μL of cold sterile TBS. Cells were then lysed (100 μL of 150 mM NaCl, 20 mM Tris, pH 7.5, 1 mM EDTA, 1 mM EGTA, 1% Triton-x-100 plus protease and phosphatase inhibitors) by shaking at 4° C. for 1 hour. Cell lysates were transferred to plates pre-coated with anti-phospho mAur1 (Rockland, 600-401-677) and blocked with 5% blocker A in TBS from Meso Scale Discovery. After incubating for 1 hour at RT, plates were washed with 300 μL of TBST for a total of three times. The supernatant was removed and replaced with 50 μL of diluted primary antibody (anti-Aurora Kinase 1, Pharmingen, 611083) at 1:1000 in 2% blocker A in TBS and incubated at room temperature for 1 hour. The antibody buffer was removed from each well and washed three times with 300 μL of cold TBS-T ([…] Tris pH 8.0, 138 mM NaCl, 2.7 mM KCL, 0.05% Tween 20). The wash buffer was replaced with 50 μL of secondary antibody (Sulfa TAG anti-mouse, Meso Scale Discovery) at 1:1000 in 2% blocker A and incubated at room temperature for 1 hour. For the final readout with the Sector 6000, 150 μL of reading buffer T was added and the plates were read immediately.
(An ELISA detects its analyte on a solid surface through an enzyme-linked reagent.)

Experiment [2] concerns the target T2, murine Aurora Kinase 2 (mAur2) (Mus musculus, UniProt P97477).
T2 construct: N-terminal His-tagged mAur2 (amino acids 98-395; DRT, Protein Sciences); His (N); made in house
T2 sequence (P97477 98-395): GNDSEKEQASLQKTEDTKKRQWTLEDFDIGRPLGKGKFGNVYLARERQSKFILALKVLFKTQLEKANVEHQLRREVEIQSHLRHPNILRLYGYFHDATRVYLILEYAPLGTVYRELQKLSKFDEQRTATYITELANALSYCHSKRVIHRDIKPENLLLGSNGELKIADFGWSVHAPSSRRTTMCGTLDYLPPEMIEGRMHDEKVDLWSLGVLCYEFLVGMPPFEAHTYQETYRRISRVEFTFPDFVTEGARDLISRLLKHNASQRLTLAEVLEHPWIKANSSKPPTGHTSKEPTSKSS
Nature of the experiment: murine Aurora Kinase 2 (mAur2) biochemical Scintillation Proximity Assay. To be noted: SPA, biotinylated Peptide 830, 1 μM ATP, 20 nM His-tagged mAur2. As for the experimental part: (§1) Using a Scintillation Proximity Assay (SPA) format, the murine Aurora Kinase 1 (mAur1) and murine Aurora Kinase 2 (mAur2) biochemical assay measures the ability of mAur2 to phosphorylate the substrate, biotinylated Peptide 830 (DRT, Protein Sciences). Once radiolabeled by the enzyme, the biotinylated substrate is captured on streptavidin-coated SPA beads and the radioactivity, in proximity to the SPA beads, is measured. For the generation of IC50 curves, the reaction was performed in 96-well isoplates (Wallac 1450-514) under the following conditions: a 10 mM stock solution of compound (in 100% dimethylsulfoxide; DMSO) was diluted 10 fold in 100% DMSO. Compounds were then serially diluted, 1:5, for an eight point dose curve, in 100% DMSO. A volume of 1 μL of the diluted compound was added to the reaction buffer that consisted of 25 mM HEPES pH 7.5, 1 mM MnCl2, 1 mM MgCl2, 1 mM DTT, 0.01% Tween20. A mixture with a final concentration per well of 1 μM cold ATP, 0.1 μCi ^33P-ATP (Amersham AH9968) and 1 μM biotinylated Peptide 830 was then added. The reaction was initiated with the addition of either recombinant, GST-tagged mAur 1 (amino acids 67-345) that was co-expressed with human INCENP (amino acids 704-919) (DRT, Protein Sciences) at a final concentration of 12 nM or N-terminal His-tagged mAur2 (amino acids 98-395; DRT, Protein Sciences) at a final concentration of 20 nM. The final reaction volume in each well was 100 μL and the final compound concentration ranged from 10 μM-[…] in 1% DMSO. The reaction mixture was allowed to incubate for 1-2 hours with gentle agitation at 25° C. To terminate the reaction, streptavidin-coated SPA beads (Amersham RPNQ0007; 50 μL of 0.5 mg beads dissolved in 165 mM EDTA) were then added to each well and incubation proceeded for an additional 15 minutes at 25° C. The plate was then centrifuged for ten minutes at 2000 rpm. Phosphorylation of the peptide substrate was measured using a Wallac 1450 Microbeta Plus Liquid Scintillation Counter.

Experiment [3] addresses T3, murine Aurora Kinase 1 (mAur1) (Mus musculus, UniProt O70126).
T3 construct: recombinant, GST-tagged mAur 1 (amino acids 67-345) that was co-expressed with human INCENP; GST; made in house
Nature of the experiment: murine Aurora Kinase 1 (mAur1) biochemical Scintillation Proximity Assay. To be noted: SPA, biotinylated Peptide 830, 1 μM ATP, 12 nM GST-tagged mAur 1 co-expressed with human INCENP. How it is done:
as §1
(In a scintillation proximity assay essentially only radioactivity close to the scintillant gives light.)

In patent publication US8338594B2, “Pyrrolotriazine derivatives useful for treating cancer through inhibition of aurora kinase” (Bayer HealthCare LLC, priority 2005, dated 2012) one finds IC50 data, which are given here for 16 compounds.

In general, IC50 refers to the concentration that gives 50% inhibition.

T1 sequence (Q96GD4 whole entry): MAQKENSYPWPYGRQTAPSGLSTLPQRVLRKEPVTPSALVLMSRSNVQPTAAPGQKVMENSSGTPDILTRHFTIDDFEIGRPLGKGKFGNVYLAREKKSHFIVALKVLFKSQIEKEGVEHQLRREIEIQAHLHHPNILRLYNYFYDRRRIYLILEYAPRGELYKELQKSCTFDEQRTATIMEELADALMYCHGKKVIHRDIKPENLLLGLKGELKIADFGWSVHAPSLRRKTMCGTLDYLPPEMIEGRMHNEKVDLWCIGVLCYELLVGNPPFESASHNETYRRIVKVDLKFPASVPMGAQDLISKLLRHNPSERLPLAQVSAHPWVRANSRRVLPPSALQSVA
T3 sequence (O70126 67-345): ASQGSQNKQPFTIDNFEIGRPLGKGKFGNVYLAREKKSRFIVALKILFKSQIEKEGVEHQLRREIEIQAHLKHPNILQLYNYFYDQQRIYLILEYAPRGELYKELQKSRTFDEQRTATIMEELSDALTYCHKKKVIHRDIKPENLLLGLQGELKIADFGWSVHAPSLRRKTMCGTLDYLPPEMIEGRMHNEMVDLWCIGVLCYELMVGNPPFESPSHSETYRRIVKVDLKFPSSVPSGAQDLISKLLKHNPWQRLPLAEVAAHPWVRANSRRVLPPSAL
T3 sequence (Q9NQS7 704-918 partner): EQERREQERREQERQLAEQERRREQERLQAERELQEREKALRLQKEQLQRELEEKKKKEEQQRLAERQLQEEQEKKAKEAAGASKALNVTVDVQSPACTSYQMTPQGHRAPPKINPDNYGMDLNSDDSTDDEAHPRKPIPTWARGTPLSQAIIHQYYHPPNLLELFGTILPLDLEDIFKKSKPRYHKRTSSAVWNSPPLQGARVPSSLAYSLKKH

The compound `CC(C)(C)c1ccc2nc(Nc3ccc(-c4c(C(=O)NCC(F)(F)F)cn5ncnc(N)c45)cc3)[nH]c2c1` [Example 10, 4-amino-5-{4-[(6-tert-butyl-1H-benzimidazol-2-yl)amino]phenyl}-N-(2,2,2-trifluoroethyl)pyrrolo[2,1-f][1,2,4]triazine-6-carboxamide] yielded a half-inhibitory concentration (IC50) in experiment [1] of less than 1000 nM. Take `Nc1ncnn2cc(C(=O)NCC(F)(F)F)c(-c3ccc(Nc4nc5cc6c(cc5[nH]4)OC(F)(F)O6)cc3)c12` [Example 17, 4-amino-5-{4-[(2,2-difluoro-5H-[1,3]dioxolo[4,5-f]benzimidazol-6-yl)amino]phenyl}-N-(2,2,2-trifluoroethyl)pyrrolo[2,1-f][1,2,4]triazine-6-carboxamide]: the IC50 in experiment [1] is less than 1000 nM; in experiment [2], less than 100 nM; in experiment [3], less than 100 nM.

Regarding `Nc1ncnn2cc(C(=O)NCC(F)(F)F)c(-c3ccc(Nc4nc5ccc(N6CCCC6)nc5[nH]4)cc3)c12` [Example 20, 4-amino-5-{4-[(5-pyrrolidin-1-yl-3H-imidazo[4,5-b]pyridin-2-yl)amino]phenyl}-N-(2,2,2-trifluoroethyl)pyrrolo[2,1-f][1,2,4]triazine-6-carboxamide], the IC50 in experiment [1] is less than 1000 nM. Still for that read-out and setting: for `Nc1ncnn2cc(C(=O)NCC(F)(F)F)c(-c3ccc(Nc4nc5ccc(OC(F)(F)F)cc5[nH]4)cc3)c12` [Example 31, 4-amino-N-(2,2,2-trifluoroethyl)-5-(4-{[6-(trifluoromethoxy)-1H-benzimidazol-2-yl]amino}phenyl)pyrrolo[2,1-f][1,2,4]triazine-6-carboxamide] the value was less than 1000 nM; for `Nc1ncnn2cc(C(=O)NCC(F)(F)F)c(-c3ccc(Nc4nc5ccc(Oc6ccccc6)c(F)c5[nH]4)cc3)c12` [Example 32, 4-amino-5-{4-[(7-fluoro-6-phenoxy-1H-benzimidazol-2-yl)amino]phenyl}-N-(2,2,2-trifluoroethyl)pyrrolo[2,1-f][1,2,4]triazine-6-carboxamide], less than 1000 nM; for `Nc1ncnn2cc(C(=O)NCC(F)(F)F)c(-c3ccc(Nc4nc5ccc(Oc6ccc(F)cc6)c(F)c5[nH]4)cc3)c12` [Example 35, 4-amino-5-(4-{[7-fluoro-6-(4-fluorophenoxy)-1H-benzimidazol-2-yl]amino}phenyl)-N-(2,2,2-trifluoroethyl)pyrrolo[2,1-f][1,2,4]triazine-6-carboxamide], less than 1000 nM. Turning to `Nc1ncnn2cc(C(=O)NCC(F)(F)F)c(-c3ccc(Nc4nc5ccc(NC6CCC6)nc5[nH]4)cc3)c12` [Example 47, 4-amino-5-(4-{[5-(cyclobutylamino)-3H-imidazo[4,5-b]pyridin-2-yl]amino}phenyl)-N-(2,2,2-trifluoroethyl)pyrrolo[2,1-f][1,2,4]triazine-6-carboxamide], the figures for the IC50 in experiment [1], in experiment [2] and in experiment [3] were less than 1000 nM, less than 100 nM and less than 100 nM, respectively. `CC(C)(C)NC(=O)c1cn2ncnc(N)c2c1-c1ccc(Nc2nc3cc(F)cc(F)c3[nH]2)cc1` [Example 72, 4-amino-N-(tert-butyl)-5-{4-[(5,7-difluoro-1H-benzimidazol-2-yl)amino]phenyl}pyrrolo[2,1-f][1,2,4]triazine-6-carboxamide]: the IC50 in experiment [1] was less than 1000 nM; in experiment [2], less than 100 nM; in experiment [3], less than 100 nM. Regarding `CNC(=O)c1cn2ncnc(N)c2c1-c1ccc(Nc2nc3ccc(Oc4ccccc4)c(F)c3[nH]2)cc1` [Example 102, 4-amino-5-{4-[(7-fluoro-6-phenoxy-1H-benzimidazol-2-yl)amino]phenyl}-N-methylpyrrolo[2,1-f][1,2,4]triazine-6-carboxamide], the IC50 was less than 1000 nM in experiment [1], less than 100 nM in experiment [2] and less than 100 nM in experiment [3].

On to `CC(C)CNC(=O)c1cn2ncnc(N)c2c1-c1ccc(Nc2nc3ccc(Oc4ccccc4)c(F)c3[nH]2)cc1` [Example 111, 4-amino-5-{4-[(7-fluoro-6-phenoxy-1H-benzimidazol-2-yl)-amino]phenyl}-N-isobutylpyrrolo[2,1-f][1,2,4]triazine-6-carboxamide], for which the IC50 in experiment [2] and in experiment [3] was less than 100 nM each time. `Nc1ncnn2cc(C(=O)NC3CCCC3)c(-c3ccc(Nc4nc5ccc(Oc6ccccc6)c(F)c5[nH]4)cc3)c12` [Example 112, 4-amino-N-cyclopentyl-5-{4-[(7-fluoro-6-phenoxy-1H-benzimidazol-2-yl)amino]phenyl}pyrrolo[2,1-f][1,2,4]triazine-6-carboxamide]: the IC50 in experiment [2] and in experiment [3] was less than 100 nM throughout. Turning to `Nc1ncnn2cc(C(=O)N3CCCC3)c(-c3ccc(Nc4nc5ccc(Oc6ccccc6)c(F)c5[nH]4)cc3)c12` [Example 113, 5-{4-[(7-fluoro-6-phenoxy-1H-benzimidazol-2-yl)amino]phenyl}-6-(pyrrolidin-1-ylcarbonyl)pyrrolo[2,1-f][1,2,4]triazin-4-amine], the 50% inhibitory concentration (IC50) in experiment [2] and in experiment [3] was less than 100 nM throughout. Regarding `Cc1ccc(-c2ccc3nc(Nc4ccc(-c5c(C(=O)NCC(F)(F)F)cn6ncnc(N)c56)cc4)[nH]c3n2)cc1` [Example 115, 4-amino-5-(4-{[5-(4-methylphenyl)-3H-imidazo[4,5-b]pyridin-2-yl]amino}phenyl)-N-(2,2,2-trifluoroethyl)pyrrolo[2,1-f][1,2,4]triazine-6-carboxamide], the IC50 in experiment [2] and in experiment [3] was less than 100 nM each time. `COCc1cccc(-c2ccc3nc(Nc4ccc(-c5c(C(=O)NCC(F)(F)F)cn6ncnc(N)c56)cc4)[nH]c3n2)c1` [Example 116, 4-amino-5-[4-({5-[3-(methoxymethyl)phenyl]-3H-imidazo[4,5-b]pyridin-2-yl}amino)phenyl]-N-(2,2,2-trifluoroethyl)pyrrolo[2,1-f][1,2,4]triazine-6-carboxamide]: the IC50 in experiment [2] and in experiment [3] was less than 100 nM each time. Consider `Nc1ncnn2cc(C(=O)O)c(-c3ccc(Nc4nc5ccc(C(F)(F)F)nc5[nH]4)cc3)c12` [Example 119], for which the concentration for half-maximal inhibition (IC50) in experiment [2] and in experiment [3] was less than 100 nM throughout.

As to `Nc1ncnn2cc(C(=O)NCC(F)(F)F)c(-c3ccc(Nc4nc5ccc(C(F)(F)F)nc5[nH]4)cc3)c12` [Example 120, 4-amino-N-(2,2,2-trifluoroethyl)-5-(4-{[5-(trifluoromethyl)-3H-imidazo[4,5-b]pyridin-2-yl]amino}phenyl)pyrrolo[2,1-f][1,2,4]triazine-6-carboxamide], the IC50 in experiment [2] and in experiment [3] was less than 100 nM in each case.
